Source: patent publication US12247033B2, “Triazole-substituted imidazo[1,2-a]pyrimidines as cGAS inhibitors” (GlaxoSmithKline Intellectual Property Development Limited, priority 2022, dated 2025)

Legend:
CGAS = CGAS whole blood cytokine release assay (384-well, BacMam stimulation, IP-10 by cytometric bead array); type: cell-based; conditions: Homo sapiens, 6 h; read-out: hWB pXC50 (converted)
Description: Blood collection: Blood was collected in a tube containing 10% Sodium Heparin (5 ml/45 ml blood final).
Protocol for CGAS Whole Blood Cytokine Release Assay: Compounds serial diluted at 1:3 were provided at 150 nL per well, in a 384 well polypropylene microplate (cat. 781280; Greiner Bio-One, Frickenhausen, Germany). 5 μL of PBS/20% Null BacMam was dispensed to all wells except for column 18 on a Multidrop Combi (Thermo Scientific, Waltham, MA). 5 uL of PBS was dispensed into column 18. The Bravo (Agilent, Santa Clara, CA) was used to transfer 45 uL of donor derived blood into the compound plates. The Bravo protocol mixed the blood and compound/PBS 5 times. The plates were incubated at 37° C., 5% CO2, for 6 hours. At the 6 hour mark the plates were removed and centrifuged for 10 minutes at 3000 RPM. 3 uL of supernatant was transferred from the plate to a 384 well NBS microplate (cat. 4513; Corning Life Sciences, Corning, NY). These plates were sealed with adhesive foil and stored in a −80 freezer until ready for analysis.
For cytokine detection, Human IP-10 BD cytometric bead array (CBA) beads (BD Biosciences, Franklin Lakes, NJ) were used. Capture bead solution was prepared by performing a 1:50 dilution of the IP-10 capture bead stock solution in BD diluent for serum/plasma (cat. 51-9003991 BD Biosciences, Franklin Lakes, NJ). 2 μL of this solution was added per well to the assay microplates which were then sealed with adhesive foil and incubated at room temperature for 2 h in the dark. Detection reagent was further prepared by performing a 1:50 dilution of the detection reagent stock solution. 2 μL of detection reagent was added per well and microplates were sealed with adhesive foil and incubated at room temperature in the dark for 1 h. After the 1 h incubation 3 uL of BD CBA wash buffer was added per well of the microplates. Data were acquired on an iQue Screener flow cytometer. The iQue used fluorescence detection to quantify the inhibition of IP-10 present in the sample wells. A sip time of 1 second per sample was used. The blue laser with excitation of 488 nm and emission filters 585/40 nm were used to capture the mean and median of IP-10 with the detector in logarithmic mode (FL2-H).
All data analysis was carried out in IDBS ActivityBase XE.

human CGAS (157-522) = human CGAS (157-522) (Homo sapiens, UniProt Q8N884); assay: biochemical;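 also: biochemical enzyme reaction, 2′3′-cGAMP product measured by RapidFire mass spectrometry (MRM) normalised to c-di-UMP internal standard, inhibition of product formation relative to high and low control wells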
human CGAS (157-522), sequence (Q8N884 157-522): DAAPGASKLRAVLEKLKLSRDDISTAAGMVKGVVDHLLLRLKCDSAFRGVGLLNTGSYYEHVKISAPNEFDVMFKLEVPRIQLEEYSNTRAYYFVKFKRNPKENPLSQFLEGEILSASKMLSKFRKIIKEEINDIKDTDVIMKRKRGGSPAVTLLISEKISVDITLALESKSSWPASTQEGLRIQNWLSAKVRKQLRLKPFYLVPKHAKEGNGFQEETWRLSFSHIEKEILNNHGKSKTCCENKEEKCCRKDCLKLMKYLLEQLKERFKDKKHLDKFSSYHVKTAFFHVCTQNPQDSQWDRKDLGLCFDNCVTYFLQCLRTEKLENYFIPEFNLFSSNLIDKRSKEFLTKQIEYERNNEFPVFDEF
Description: Compounds were serially diluted 2, 3, or 4-fold in neat DMSO to generate 11-point dose response curves and then 250 nL compound or DMSO solution was transferred to Greiner 384-well V-bottom assay plates (Catalog #781280) using an Echo acoustic dispenser (Labcyte). A solution of 150 μM ATP, 150 μM GTP, 20 μM pppGpA (GTP-2′5′-AMP, custom synthesis from ChemGenes), and 10 μg/mL sheared salmon sperm DNA (Sigma, Catalog #D1626) in assay buffer (20 mM Trizma, pH 7.5, 10 mM magnesium chloride, 0.3 mM CHAPS, and 0.01% (w/v) bovine serum albumin) was added to columns 1-17, 19-24 of the plate at 12.5 μL/well using a Combi liquid handler (ThermoFisher). A 12.5 μL/well low control solution containing 150 μM ATP, 150 μM GTP, 20 μM pppGpA in assay buffer was added to column 18 using the Combi. A 12.5 μL/well solution of 10-100 nM human CGAS (157-522) in assay buffer was then added to all wells of the plate using the Combi. […] Reactions were quenched by added 50 μL/well of 0.5% (v/v) trifluoroacetic acid (TFA) in mass spectrometry grade deionized water containing 5 μM cyclic-di-UMP (ci-di-UMP; Invivogen Catalog #tlrl-cdu) as the internal standard (IS). Plates were centrifuged for 1 min and then quenched reactions were analyzed using a RF-MS 300 system operating in a Multiple Reaction Monitoring (MRM) detection mode.
Samples (10 μL injection volume) were passed over a silica C18/type C solid phase extraction (SPE) cartridge for analyte (2′3′-cyclic guanosine monophosphate adenosine monophosphate (2′3′-cGAMP), product of biochemical reaction)/pppGpA/c-di-UMP IS adsorption. Adsorbed samples were desalted for 3000 ms using a 100% water eluent A/desalting solution. Afterwards, desalted samples were eluted using a 0.5% TFA in 20%/80% acetonitrile/water eluent B/elution solution directly into either a Sciex 4000, 5000 or 5500 triple quadrupole mass spectrometer (QQQ-MS) for MRM analyte/IS detection. QQQ-MS detection conditions were as follow: scan type: MRM; curtain (CUR) gas: 30 psi; nebulizer (GS1) gas: 50 psi; drying (GS2) gas: 60 psi; collisionally activated dissociation (CAD) gas: 12 relative setting; precursor ion (Q1) masses: 2′3′-cGAMP: m/z 675.1 Da/pppGpA: m/z 853.0 Da/c-di-UMP: m/z 613.1 Da; fragment ion (Q3) masses: 2′3′-cGAMP: m/z 524.1 Da/pppGpA: m/z 702.0 Da/c-di-UMP: 307.1 Da; declustering potentials (DPs): 2′3′-cGAMP: +81 V/pppGpA: +85 V/c-di-UMP: +85 V; entrance potential: +10 V (all analytes); collision energies (CEs): 2′3′-cGAMP: +33 V/pppGpA: +36 V/c-di-UMP: +35 V; collision cell exit potential (CXP): +10 V (all analytes); interface heater (Sciex 4000/5000 only): on; Q1 resolution: unit (all analyte); Q3 resolution: unit (all analytes). The area under the curve (AUC) for all analytes was obtained using the RapidFire Integrator software application to calculate AUC-2′3′-cGAMP/AUC-c-di-UMP intensity ratio. Percent product formation was calculated by comparison to column 6 (high control)/column 18 (low control) responses. The % product inhibition was calculated as follows:
[formula] where A is the minimum response, B is the maximum response, C is the log10*XC50, D is the slope factor, and x is the log10 compound concentration [M] in ABASE XE.

SMILES	IC50 (CGAS) [µM]	IC50 (human CGAS (157-522)) [µM]
FC(F)(F)c1n[nH]c(-c2nc3nc4c(cn3c2-c2cn[nH]c2)COCC4)n1 [Example 72, 6-(1H-pyrazol-4-yl)-5-[3-(trifluoromethyl)-1H-1,2,4-triazol-5-yl]-11-oxa-2,4,7-triazatricyclo[7.4.0.0^3,^7]trideca-1,3,5,8-tetraene]	15.8	0.0126
CN1CCc2nc3nc(-c4nc(C(F)(F)F)n[nH]4)c(-c4cnc[nH]4)n3cc2C1 [Example 73, 6-(1H-imidazol-5-yl)-11-methyl-5-[3-(trifluoromethyl)-1H-1,2,4-triazol-5-yl]-2,4,7,11-tetraazatricyclo[7.4.0.0^3,^7]trideca-1,3,5,8-tetraene]	0.794	0.00631
FC(F)(F)c1n[nH]c(-c2nc3nc4c(cn3c2-c2cnc[nH]2)CNCC4)n1 [Example 74, 6-(1H-imidazol-5-yl)-5-[3-(trifluoromethyl)-1H-1,2,4-triazol-5-yl]-2,4,7,11-tetraazatricyclo[7.4.0.0^3,^7]trideca-1,3,5,8-tetraene]	1.26	0.00794
CNCc1cnc2nc(-c3nc(C(F)(F)F)n[nH]3)c(-c3cnc[nH]3)n2c1 [Example 75, {[3-(1H-imidazol-5-yl)-2-[3-(trifluoromethyl)-1H-1,2,4-triazol-5-yl]imidazo[1,2-a]pyrimidin-6-yl]methyl}(methyl)amine]	0.631	0.01
FC(F)(F)c1n[nH]c(-c2nc3ncc(COC4CCOC4)cn3c2-c2cnc[nH]2)n1 (centres unmarked) [Example 78, 5-[3-(1H-imidazol-5-yl)-6-[(oxolan-3-yloxy)methyl]imidazo[1,2-a]pyrimidin-2-yl]-3-(trifluoromethyl)-1H-1,2,4-triazole]	0.398	0.00794
FC(F)(F)c1n[nH]c(-c2nc3nc4c(cn3c2-c2cnc[nH]2)CNCC4(F)F)n1 [Example 83, 13,13-difluoro-6-(1H-imidazol-5-yl)-5-[3-(trifluoromethyl)-1H-1,2,4-triazol-5-yl]-2,4,7,11-tetraazatricyclo[7.4.0.0^3,^7]trideca-1,3,5,8-tetraene]	0.316	0.00794
CC(=O)OCn1cnc(-c2c(-c3nc(C(F)(F)F)nn3COC(C)=O)nc3ncccn23)c1 [Example 84, [5-(3-{1-[(acetyloxy)methyl]-1H-imidazol-4-yl}imidazo[1,2-a]pyrimidin-2-yl)-3-(trifluoromethyl)-1H-1,2,4-triazol-1-yl]methyl acetate]	0.158	15.8
CC(=O)N1Cc2cn3c(-c4cnc[nH]4)c(-c4nc(C(F)(F)F)n[nH]4)nc3nc2C(F)(F)C1 [Example 87, 1-[13,13-difluoro-6-(1H-imidazol-5-yl)-5-[3-(trifluoromethyl)-1H-1,2,4-triazol-5-yl]-2,4,7,11-tetraazatricyclo[7.4.0.0^3,^7]trideca-1,3,5,8-tetraen-11-yl]ethan-1-one]	> 31.6	2
FC(F)c1n[nH]c(-c2nc3nc(C(F)(F)F)ccn3c2-c2cnc[nH]2)n1 [Example 88, 3-(difluoromethyl)-5-[3-(1H-imidazol-5-yl)-7-(trifluoromethyl)imidazo[1,2-a]pyrimidin-2-yl]-1H-1,2,4-triazole]	0.501	0.00501
FC(F)c1n[nH]c(-c2nc3ncccn3c2-c2cn[nH]c2)n1 [Example 90, 3-(difluoromethyl)-5-[3-(1H-pyrazol-4-yl)imidazo[1,2-a]pyrimidin-2-yl]-1H-1,2,4-triazole]	1	0.01
FC(F)c1ccn2c(-c3cnc[nH]3)c(-c3nc(C(F)(F)F)n[nH]3)nc2n1 [Example 95, 5-[7-(difluoromethyl)-3-(1H-imidazol-5-yl)imidazo[1,2-a]pyrimidin-2-yl]-3-(trifluoromethyl)-1H-1,2,4-triazole]	0.398	0.01

Further compounds by falling IC50 (human CGAS (157-522)), results first:

IC50 (CGAS) [µM]	IC50 (human CGAS (157-522)) [µM]	SMILES
1.26	0.00501	CC(=O)N1Cc2cn3c(-c4cnc[nH]4)c(-c4nc(C(F)(F)F)n[nH]4)nc3nc2C1 [Example 68, 1-[12-(1H-imidazol-5-yl)-11-[3-(trifluoromethyl)-1H-1,2,4-triazol-5-yl]-1,5,8,10-tetraazatricyclo[7.3.0.0^3,^7]dodeca-2,7,9,11-tetraen-5-yl]ethan-1-one]
0.126	0.00501	FC(F)(F)c1n[nH]c(-c2nc3nc4c(cn3c2-c2cnc[nH]2)COCC4)n1 [Example 71, 6-(1H-imidazol-5-yl)-5-[3-(trifluoromethyl)-1H-1,2,4-triazol-5-yl]-11-oxa-2,4,7-triazatricyclo[7.4.0.0^3,^7]trideca-1,3,5,8-tetraene]
0.2	0.00501	FC(F)(F)c1n[nH]c(-c2nc3ncc(C4CCCO4)cn3c2-c2cnc[nH]2)n1 (centres unmarked) [Example 82, 5-[3-(1H-imidazol-5-yl)-6-(oxolan-2-yl)imidazo[1,2-a]pyrimidin-2-yl]-3-(trifluoromethyl)-1H-1,2,4-triazole]
0.158	0.00398	CC(C)(C)C(=O)n1cnc(-c2c(-c3nc(C(F)(F)F)n[nH]3)nc3ncccn23)c1 [Example 81, 2,2-dimethyl-1-(4-{2-[3-(trifluoromethyl)-1H-1,2,4-triazol-5-yl]imidazo[1,2-a]pyrimidin-3-yl}-1H-imidazol-1-yl)propan-1-one]
0.0501	0.00398	COCc1cnc2nc(-c3nc(C(F)F)n[nH]3)c(-c3cnc[nH]3)n2c1 [Example 86, 3-(difluoromethyl)-5-[3-(1H-imidazol-5-yl)-6-(methoxymethyl)imidazo[1,2-a]pyrimidin-2-yl]-1H-1,2,4-triazole]
6.31	0.00398	O=S1(=O)CCc2nc3nc(-c4nc(C(F)(F)F)n[nH]4)c(-c4cnc[nH]4)n3cc2C1 [Example 104, 6-(1H-imidazol-5-yl)-5-[3-(trifluoromethyl)-1H-1,2,4-triazol-5-yl]-11λ^6-thia-2,4,7-triazatricyclo[7.4.0.0^3,^7]trideca-1,3,5,8-tetraene-11,11-dione]
2	0.00316	FC(F)(F)c1n[nH]c(-c2nc3ncc(CN4CCOCC4)cn3c2-c2c[nH]cn2)n1 [Example 70, 4-{[3-(1H-imidazol-4-yl)-2-[3-(trifluoromethyl)-1H-1,2,4-triazol-5-yl]imidazo[1,2-a]pyrimidin-6-yl]methyl}morpholine]
0.1	0.00316	CCOCc1cnc2nc(-c3nc(C(F)(F)F)n[nH]3)c(-c3cnc[nH]3)n2c1 [Example 79, 5-[6-(ethoxymethyl)-3-(1H-imidazol-5-yl)imidazo[1,2-a]pyrimidin-2-yl]-3-(trifluoromethyl)-1H-1,2,4-triazole]
12.6	0.00316	FC(F)(F)c1n[nH]c(-c2nc3ncc(COC4CCNC4)cn3c2-c2cnc[nH]2)n1 (centres unmarked) [Example 80, 5-[3-(1H-imidazol-5-yl)-6-[(pyrrolidin-3-yloxy)methyl]imidazo[1,2-a]pyrimidin-2-yl]-3-(trifluoromethyl)-1H-1,2,4-triazole]
1	0.00316	N#CCCOCc1cnc2nc(-c3nc(C(F)(F)F)n[nH]3)c(-c3cnc[nH]3)n2c1 [Example 105, 3-{[3-(1H-imidazol-5-yl)-2-[3-(trifluoromethyl)-1H-1,2,4-triazol-5-yl]imidazo[1,2-a]pyrimidin-6-yl]methoxy}propanenitrile]
0.126	0.00251	COCc1cnc2nc(-c3nc(C(F)(F)F)n[nH]3)c(-c3cnc[nH]3)n2c1 [Example 69, 5-[3-(1H-imidazol-5-yl)-6-(methoxymethyl)imidazo[1,2-a]pyrimidin-2-yl]-3-(trifluoromethyl)-1H-1,2,4-triazole]
1.58	0.00251	FC(F)(F)c1n[nH]c(-c2nc3ncc(Cc4ccccc4)cn3c2-c2cnc[nH]2)n1 [Example 89, 5-[6-benzyl-3-(1H-imidazol-5-yl)imidazo[1,2-a]pyrimidin-2-yl]-3-(trifluoromethyl)-1H-1,2,4-triazole]
0.398	0.002	FC(F)(F)c1n[nH]c(-c2nc3ncc(Br)cn3c2-c2cnc[nH]2)n1 [Example 77, 5-[6-bromo-3-(1H-imidazol-5-yl)imidazo[1,2-a]pyrimidin-2-yl]-3-(trifluoromethyl)-1H-1,2,4-triazole]
0.251	0.00126	FC(F)(F)c1n[nH]c(-c2nc3nc4c(cn3c2-c2cnc[nH]2)CSCC4)n1 [Example 103, 6-(1H-imidazol-5-yl)-5-[3-(trifluoromethyl)-1H-1,2,4-triazol-5-yl]-11-thia-2,4,7-triazatricyclo[7.4.0.03,7]trideca-1,3,5,8-tetraene]
